Reference: PubChem BioAssay (NCI)
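Dose response: 5 concentrations. Exposure: 48 h. Format: 96-well plates. Endpoint: linear interpolation; highest concentration if not reached. GI50 = concentration required for 50% inhibition of growth. TGI denotes the concentration required for complete inhibition of growth.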

Assays:
Experiment in all cases: growth of human tumour cells (NCI), 48 h
[1] = tested on: 786-0 renal
[2] = tested on: A498 renal
[3] = tested on: A549 NSCLC
[4] = tested on: ACHN renal
[5] = tested on: BT-549 breast
[6] = tested on: CAKI-1 renal
[7] = tested on: CCRF-CEM leukemia
[8] = tested on: COLO 205 colon
[9] = tested on: DU-145 prostate
[10] = tested on: EKVX NSCLC
[11] = tested on: HCT-116 colon
[12] = tested on: HCT-15 colon
[13] = tested on: HL-60(TB) leukemia
[14] = tested on: HOP-62 NSCLC
[15] = tested on: HOP-92 NSCLC
[16] = tested on: HS 578T breast
[17] = tested on: HT29 colon
[18] = tested on: IGROV1 ovarian
[19] = tested on: K-562 leukemia
[20] = tested on: KM12 colon
[21] = tested on: LOX IMVI melanoma
[22] = tested on: M14 melanoma
[23] = tested on: MALME-3M melanoma
[24] = tested on: MCF7 breast
[25] = tested on: MDA-MB-231 breast
[26] = tested on: MDA-MB-435
[27] = tested on: MOLT-4 leukemia
[28] = tested on: NCI-H226 lung
[29] = tested on: NCI-H23 lung
[30] = tested on: NCI-H460 lung
[31] = tested on: NCI-H522 lung
[32] = tested on: NCI/ADR-RES ovarian
[33] = tested on: OVCAR-3 ovarian
[34] = tested on: OVCAR-4 ovarian
[35] = tested on: OVCAR-5 ovarian
[36] = tested on: OVCAR-8 ovarian
[37] = tested on: RPMI-8226 leukemia
[38] = tested on: RXF 393 renal
[39] = tested on: SF-268 CNS
[40] = tested on: SF-295 CNS
[41] = tested on: SF-539 CNS
[42] = tested on: SK-MEL-2 melanoma
[43] = tested on: SK-MEL-28 melanoma
[44] = tested on: SK-MEL-5 melanoma
[45] = tested on: SK-OV-3 ovarian
[46] = tested on: SN12C renal
[47] = tested on: SNB-19 CNS
[48] = tested on: SNB-75 CNS
[49] = tested on: SR leukemia
[50] = tested on: SW-620 colon
[51] = tested on: T-47D breast
[52] = tested on: TK-10 renal
[53] = tested on: U251 CNS
[54] = tested on: UACC-257 melanoma
[55] = tested on: UACC-62 melanoma
[56] = tested on: UO-31 renal

O=C1c2ccccc2-c2c1c1c(=O)[nH]c3ccccc3c1n2Cc1ccccc1
GI50 [1]: 33 µM | TGI [1]: 85 µM | GI50 [2]: 21.1 µM | TGI [2]: 50.6 µM | GI50 [3]: > 100 µM | TGI [3]: > 100 µM | GI50 [4]: 13 µM | TGI [4]: 25.6 µM | GI50 [5]: 19.5 µM | TGI [5]: 34.7 µM | GI50 [6]: 33.5 µM | TGI [6]: > 100 µM | GI50 [7]: > 100 µM | TGI [7]: > 100 µM | GI50 [8]: > 100 µM | TGI [8]: > 100 µM | GI50 [9]: 43.8 µM | TGI [9]: > 100 µM | GI50 [10]: 30.4 µM | TGI [10]: 99.5 µM | GI50 [11]: 39.9 µM | TGI [11]: > 100 µM | GI50 [12]: 59.1 µM | TGI [12]: > 100 µM | GI50 [13]: > 100 µM | TGI [13]: > 100 µM | GI50 [14]: 25.6 µM | TGI [14]: 49.1 µM | GI50 [15]: 15.8 µM | TGI [15]: 51.5 µM | GI50 [16]: 16.5 µM | TGI [16]: 35.7 µM | GI50 [17]: > 100 µM | TGI [17]: > 100 µM | GI50 [18]: 29.9 µM | TGI [18]: 97.3 µM | GI50 [19]: > 100 µM | TGI [19]: > 100 µM | GI50 [20]: > 100 µM | TGI [20]: > 100 µM | GI50 [21]: 31.3 µM | TGI [21]: > 100 µM | GI50 [22]: > 100 µM | TGI [22]: > 100 µM | GI50 [23]: 37.1 µM | TGI [23]: > 100 µM | GI50 [24]: 35.8 µM | TGI [24]: > 100 µM | GI50 [25]: 20.5 µM | TGI [25]: 48 µM | GI50 [26]: > 100 µM | TGI [26]: > 100 µM | GI50 [27]: > 100 µM | TGI [27]: > 100 µM | GI50 [28]: 24.5 µM | TGI [28]: 67.4 µM | GI50 [29]: 20.5 µM | TGI [29]: 46.8 µM | GI50 [30]: 61.7 µM | TGI [30]: > 100 µM | GI50 [31]: 42.7 µM | TGI [31]: > 100 µM | GI50 [32]: 52.6 µM | TGI [32]: > 100 µM | GI50 [33]: 35 µM | TGI [33]: > 100 µM | GI50 [34]: 45.4 µM | TGI [34]: > 100 µM | GI50 [35]: 49.5 µM | TGI [35]: > 100 µM | GI50 [36]: 51 µM | TGI [36]: > 100 µM | GI50 [37]: > 100 µM | TGI [37]: > 100 µM | GI50 [38]: 29.7 µM | TGI [38]: 70.4 µM | GI50 [39]: 17.7 µM | TGI [39]: 48.7 µM | GI50 [40]: 17.2 µM | TGI [40]: 40.9 µM | GI50 [41]: 17.8 µM | TGI [41]: 40.5 µM | GI50 [42]: > 100 µM | TGI [42]: > 100 µM | GI50 [43]: 84.7 µM | TGI [43]: > 100 µM | GI50 [44]: > 100 µM | TGI [44]: > 100 µM | GI50 [45]: 20.7 µM | TGI [45]: 45.8 µM | GI50 [46]: 35.9 µM | TGI [46]: > 100 µM | GI50 [47]: 25.1 µM | TGI [47]: 65.5 µM | GI50 [48]: 15.6 µM | TGI [48]: 30.1 µM | GI50 [49]: > 100 µM | TGI [49]: > 100 µM | GI50 [50]: > 100 µM | TGI [50]: > 100 µM | GI50 [51]: 34.3 µM | TGI [51]: > 100 µM | GI50 [52]: 15.1 µM | TGI [52]: 29.2 µM | GI50 [53]: 16.6 µM | TGI [53]: 34.1 µM | GI50 [54]: > 100 µM | TGI [54]: > 100 µM | GI50 [55]: 33.8 µM | TGI [55]: > 100 µM | GI50 [56]: > 100 µM | TGI [56]: > 100 µM
